Test: Loading of 2Yx2A micelles with pyraclostrobin (A280 and HPLC quantification)
Assay type: physicochemical
Protocol: Pyraclostrobin is a highly water-insoluble organic compound that is also a potent fungicide. […] To determine if pyraclostrobin could be taken up into 2Yx2A micelles, pyraclostrobin was added until it saturated a solution of 100 μL of 11 μM (A280: 0.361) 2Yx2A, evidenced by yellow particulates. The solution was then centrifuged and the supernatant was removed and then placed in a fresh tube and centrifuged again. Supernatant removal and centrifugation were repeated 3 times to remove any insoluble pyraclostrobin that has not partitioned into the micelle interior. The solution was then measured with a nanodrop to determine its absorbance at 280 nm resulting in an A280 of 0.502 (+0.141 mAU). Given the pyrene extinction coefficient of 24,000 at A275, this increase in absorbance corresponds to the presence of 5.8 μM pyrene. Similarly, the same sample can be analyzed for pyraclostrobin content via HPLC using a calibration curved developed using known pyrene concentrations in acetonitrile (FIG. 18A). For HPLC analysis the protein-pyraclostrobin solution is diluted to ½ of its volume by pyrene to break apart the micelles. Then a known volume is injected onto the HPLC (FIG. 18B). Based on the area of the pyrene peak and volume injected the number of moles and thus the concentration of pyraclostrobin can be determined. Using this method, 7.37 μM pyraclostrobin is encapsulated in 11 μM of protein.
Instead of directly adding pyraclostrobin to a solution of 2Yx2A micelles an alternative method was used to achieve higher loading efficiency. This method involved the co-resuspension of lyophilized protein and pyraclostrobin in THF which is then slowly diluted with buffer. The solution was then centrifuged and the supernatant was removed and then placed in a fresh tube and centrifuged again. Supernatant removal and centrifugation were repeated 3 times to remove any insoluble pyraclostrobin that has not partitioned into the micelle interior. The sample was then lyophilized to remove all solvent and then resuspended in milliQ water. Although no visible precipitation was observed, the sample was centrifuged to remove any unincorporated pyraclostrobin. For HPLC analysis the protein-pyraclostrobin solution is diluted to ½ of its volume by pyrene to break apart the micelles. Then a known volume is injected onto the HPLC. Based on the area of the pyrene peak and volume injected the number of moles and thus the concentration of pyraclostrobin can be determined.

SMILES: COC(=O)N(OC)c1ccccc1COc1ccn(-c2ccc(Cl)cc2)n1 [pyraclostrobin]
- Concentration encapsulated in micelles (HPLC) (direct addition to 11 μM 2Yx2A): 7.37 µM
- Amount injected on the HPLC (resuspended in water, without 2Yx2A): 0.03 nmol
- Amount injected on the HPLC (resuspended with 2Yx2A (THF co-resuspension, 100 mM PB pH 5.7)): 0.63 nmol

SMILES: c1cc2ccc3cccc4ccc(c1)c2c34 [pyrene]
- Concentration present from increase in A280 (direct addition to 11 μM 2Yx2A, +0.141 absorbance, extinction coefficient 24,000): 5.8 µM
